Test system: geranium cuttings
Assay: Root initiation and survival of geranium cuttings after treatment
Format: in vivo, Pelargonium graveolens
Parameters: % survivality, Normal / % survivality, Two node / % survivality, Apical: concentration or dose not given beside the values
Conditions: for % survivality, Apical: apical cuttings; for % survivality, Normal: normal cuttings; for % survivality, Two node: two node cuttings
Description: Geranium cuttings treated with Bacillus strain MTCC-5130, initiated rooting after 22–25 days of treatment, which was 5–7 days earlier than untreated control cuttings.

Indole butyric acid [IBA]
Root initiation (days after) (cuttings of Dec. 5, 2001): 28 days
% survivality, Apical (cuttings of Dec. 5, 2001): 100.0%
% survivality, Normal (cuttings of Dec. 5, 2001): 100%
% survivality, Two node (cuttings of Dec. 5, 2001): 100%
Root initiation (days after) (cuttings of Nov. 20, 2001): 27 days
% survivality, Apical (cuttings of Nov. 20, 2001): 95.8%
% survivality, Normal (cuttings of Nov. 20, 2001): 100%
% survivality, Two node (cuttings of Nov. 20, 2001): 69.2%

Source: patent US7211428B1, “Strain of Bacillus as a bioinoculant” (Council of Scientific and Industrial Research, priority 2004, dated 2007)
